Reference: publication PMC5571739 (Journal of neuro-oncology, 2016)
“And” between values parts separate entries of the source, which are not always exact repeats. Equal values may be shown once.

How the values were obtained:
[1] = test system: patients with recurrent malignant gliomas
[2] = Plasma pharmacokinetics of RO4929097 alone and with bevacizumab; format: in vivo, human; conditions: for AUC24: plasma, geometric mean; for AUC24 Δ% / Cmax Δ%: day 15 with bevacizumab vs day 1 alone
[3] = test system: hepatic CYP450 enzyme system; conditions: cited from earlier work

| Compound | Definitive maximum tolerated dose ([1]; in combination with bevacizumab, drug production halted) | Recommended phase II dose ([1]; orally 3 days on/4 days off each week in combination with bevacizumab) [mg/kg] | AUC24 ([2]; 5 mg oral, day 1, no concurrent bevacizumab) | AUC24 ([2]; 5 mg oral, day 15, concurrent bevacizumab) | AUC24 Δ% ([2]; 5 mg) [%] | AUC24 ([2]; 10 mg oral, day 1, no concurrent bevacizumab) | AUC24 Δ% ([2]; 10 mg) [%] | Cmax Δ% ([2]; 10 mg) [%] | AUC24 ([2]; 20 mg oral, day 1, no concurrent bevacizumab) | AUC24 ([2]; 20 mg oral, day 15, concurrent bevacizumab) | AUC24 Δ% ([2]; 20 mg) [%] | Cmax Δ% ([2]; 20 mg) [%] | Dose proportionality of mean Cmax ([2]; escalation of the dose from 5 to 20 mg) | Substrate or modulator of hepatic CYP450 enzyme system [3] |
| --- | --- | --- | --- | --- | --- | --- | --- | --- | --- | --- | --- | --- | --- | --- |
| CC(C)(C(=O)NCC(F)(F)C(F)(F)F)C(=O)N[C@@H]1C(=O)Nc2ccccc2-c2ccccc21 [RO4929097] | not identified | 10 | 1,215 ng●h/mL | 1,212 ng●h/mL | −0.2 | 2,385 ± 606 ng●h/mL and 2,385 ng●h/mL | −1.5 | 7.0 | 2,232 ± 781 ng●h/mL and 2,232 ng●h/mL | 2,555 ng●h/mL | 14.5 | 1.9 | increased less than proportionately | – |
| Bevacizumab: monoclonal antibody directed against vascular endothelial growth factor | – | – | – | – | – | – | – | – | – | – | – | – | – | not a substrate or modulator |
